# How the values were obtained:
# [1] = system: HSP70 nuclear retention in CD36+D6 from cord blood; assay: HSP70 nuclear retention in cord blood CD36+D6 under EPO starvation; assay type: cell-based, human; settings: after 20 h of treatment
# Protocol: (§1) Umbilical cord blood units from normal full-term deliveries were obtained, after informed mother's consent, from the Obstetrics Unit of Hôpital Necker-Enfants Malades. CD36+ erythroid progenitors, generated from 7 days IL-6+IL3+SCF− cultured CD34 progenitors isolated from cord blood (Miltenyi CD34 Progenitor Cell Isolation Kit), were cultured in the presence of IL3+SCF+Epo in IMDM (Gibco cell culture) supplemented with 15% BIT 9500 (Stem Cell Technologies).
# 5·10^4 cells were spin on slides, acetone fixated, hydrated with cold 1×PBS 1% BSA for 30 minutes, treated with formaldehyde for 15 min (Sigma), then with methanol (Prolabo) for 10 minutes at room temperature. Cells were then permeabilized with 1×PBS 0.2% triton X100 (Sigma) for 10 min at 4° C., washed and incubated in 10% BSA for 30 minutes. They were then sequentially incubated with antibodies diluted in 1×PBS 1% BSA 0.1% tween (Sigma). Nuclei were stained with DAPI and slides were examined with a confocal laser microscope (LSM 700 Carl Zeiss).
# [2] = system: CD36+ erythroid progenitors from cord blood; assay: Toxicity of KPT on CD36+ erythroid progenitors, normal EPO; assay type: cell-based, human; settings: day 6 (D6) of culture; 33 nM, 100 nM, 333 nM and 1000 nM; normal concentrations of EPO; until 20 h of treatment
# Protocol: FIG. 3A. KPT is not toxic for CD36+ erythroid progenitors from cord blood at day 6 (D6) of culture, when diluted at concentrations 33 nM, 100 nM, 333 nM and 1000 nM in CD36+ culture media, with normal concentrations of erythropoietin (EPO), until 20 h of treatment.
# as §1
# [3] = system: CD36+ cells derived from circulating CD34+ cells from Beta thalassemia major patient; assay: Proliferation, cell death and terminal maturation of beta-thalassemia CD36+ cells; assay type: cell-based, human
# Protocol: FIG. 6. CD36+ cells, derived from circulating CD34+ cells from Beta thalassemia major patient, were treated or not with KPT molecule (KPT 0=DMSO, KPT 100=100 nM, KPT 1000=1000 nM), and analysed at 24 h, 48 h, 72 h and 96 h of treatment. Day 0 of treatment corresponds to day 5 of CD36+ culture. a) Proliferation of CD36+ cells between 24 h and 96 h, for the different conditions of KPT treatment. b) Cell death of CD36+ cells between 48 h and 96 h, for the different conditions of KPT treatment. c) Flow cytometry analysis of Mean fluorescence intensity (MFI) for Band 3 protein, in CD36+ cells, in the different conditions of KPT treatment. d) MGG count of immature, polychromatophiles and acidophiles+reticulocytes at 96 h of treatment, for the different conditions of KPT treatment and e) corresponding maturation indexes.
# FIG. 7: CD36+ cells, derived from circulating CD34+ cells from Beta thalassemia major patient, were treated or not with KPT molecule (KPT 0=DMSO, KPT 100=100 nM, KPT 1000=1000 nM), and analysed at 24 h, 48 h, and 72 h of treatment. Day 0 of treatment corresponds to day 6 of CD36+ culture. a) Proliferation of CD36+ cells between 24 h and 72 h, for the different conditions of KPT treatment. b) Cell death of CD36+ cells between 24 h and 72 h, for the different conditions of KPT treatment. c) Flow cytometry analysis of MFI for Band 3 protein, in CD36+ cells, in the different conditions of KPT treatment. d) Flow cytometry analysis of the number of small, alive, CD36+ cells positive for fœtal haemoglobin in the different conditions of KPT treatment. e) MGG count of immature, polychromatophiles and acidophiles+reticulocytes at 48 h of treatment, for the different conditions KPT 0 and KPT 100 nM and f) corresponding maturation indexes.
# (§2) Data from FIG. 6 and FIG. 7 are from two different experiments on CD36+ cells from a beta-thalassemia patient. Data from FIG. 8 have been performed with cells from FIG. 7 experiment. Beta-thalassemia erythroblasts were generated in vitro from peripheral blood circulating CD34+ cells from an adult patient with beta-thalassemia major (β^0-TM). This study was performed according to the Helsinky Declaration with approval from the ethics committee of our institution.
# In vitro, maturation is arrested at the polychromatophilic stage in beta-thalassemia erythroid progenitors. To quantify the maturation arrest in beta-thalassemia cells, we use an index of terminal maturation as the number (acidophilic cells+reticulocytes per slide)*100 divided by the number of polychromatophilic cells per slide (Arlet J b et al. Nature oct 2014).
# [4] = system: CD36+D6 erythroid progenitors from cord blood; assay: Cell death of CD36+D6 cells during EPO starvation; assay type: cell-based, human; settings: EPO starvation during 20 h (80% of cell death without KPT)
# Protocol: FIG. 3B. EPO starvation during 20 h results in 80% of cell death. Treatment of CD36+D6 with KPT at 100 nM, 333 nM during EPO starvation decreases cell death, of 49% and 39% respectively, compared to the absence of KPT treatment.
# as §1
# [5] = system: HSP70 nuclear localization in beta-thalassemia CD36+ cells; assay: HSP70 localization and GATA1 fluorescence in beta-thalassemia CD36+ cells; assay type: cell-based, human
# Protocol: FIG. 8. CD36+ cells from the same experiment as FIG. […] Percentages of cells containing HSP70 located in the nucleus (black) or in the cytoplasm (grey), gated on the total population of cells analyzed, for the different treatment conditions: KPT 0 (a), KPT 100 nM (b) and KPT 1000 nM (c). d) HSP70 cytoplasm/nuclear ratio for the three treatment conditions e) Mean intensity and standard deviation for GATA1 transcription factor fluorescence.
# as §2
# Amnis Technology enables to analyse fluorescence localization in a large number of cells beforehand labelled. Here we show the percentage of cells positive for HSP70 labelling in the nucleus, or in the cytoplasm, for conditions KPT 0, 100 nM and 1000 nM (FIG. 8). We can observe that the fraction of cells positive for HSP70 in the nucleus increases in KPT 100 nM and 1000 nM conditions (FIGS. 8b and 8c), compared to KPT 0 (FIG. 8a).
# XPO1 = XPO1 (Homo sapiens, UniProt O14980); settings: cited from earlier work
# XPO1, sequence (O14980 whole entry): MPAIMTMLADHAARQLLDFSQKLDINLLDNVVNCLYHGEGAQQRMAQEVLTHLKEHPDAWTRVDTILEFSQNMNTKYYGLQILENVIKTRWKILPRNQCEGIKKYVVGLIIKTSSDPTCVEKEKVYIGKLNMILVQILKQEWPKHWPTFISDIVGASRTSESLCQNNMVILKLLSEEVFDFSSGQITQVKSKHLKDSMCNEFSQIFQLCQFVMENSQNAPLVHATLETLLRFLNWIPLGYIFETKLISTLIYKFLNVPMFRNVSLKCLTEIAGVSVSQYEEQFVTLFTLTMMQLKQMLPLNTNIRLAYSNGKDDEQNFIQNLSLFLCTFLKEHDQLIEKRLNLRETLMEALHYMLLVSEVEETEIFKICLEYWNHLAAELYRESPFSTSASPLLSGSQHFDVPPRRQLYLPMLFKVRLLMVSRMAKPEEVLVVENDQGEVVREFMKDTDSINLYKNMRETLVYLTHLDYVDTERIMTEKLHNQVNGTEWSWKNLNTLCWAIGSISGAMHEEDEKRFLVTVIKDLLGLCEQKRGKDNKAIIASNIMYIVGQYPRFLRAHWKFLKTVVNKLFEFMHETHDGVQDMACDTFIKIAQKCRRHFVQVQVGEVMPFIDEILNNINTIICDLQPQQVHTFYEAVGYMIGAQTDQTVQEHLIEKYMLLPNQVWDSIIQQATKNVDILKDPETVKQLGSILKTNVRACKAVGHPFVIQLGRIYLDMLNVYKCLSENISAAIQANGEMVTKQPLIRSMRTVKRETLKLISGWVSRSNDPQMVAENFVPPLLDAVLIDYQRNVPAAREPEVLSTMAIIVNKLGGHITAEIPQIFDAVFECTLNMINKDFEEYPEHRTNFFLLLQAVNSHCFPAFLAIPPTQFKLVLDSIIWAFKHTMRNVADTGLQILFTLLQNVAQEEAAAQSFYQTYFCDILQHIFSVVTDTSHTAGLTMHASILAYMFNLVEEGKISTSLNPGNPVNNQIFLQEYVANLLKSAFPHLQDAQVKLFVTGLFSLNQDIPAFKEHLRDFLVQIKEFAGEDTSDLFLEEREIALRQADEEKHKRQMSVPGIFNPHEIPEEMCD
smiles,measurement,setting,value
FC(F)(F)c1cc(-c2ncn(/C=C\c3nnco3)n2)cc(C(F)(F)F)c1 [KPT],HSP70 nuclear retention,[1],induces HSP70 nuclear retention
same,toxicity for CD36+ erythroid progenitors,[2],not toxic
same,proportion of HbF positive among the population of small alive cells,"[3]; 72 hours of treatment with 1000 nM, compared to KPT 0 and KPT 100 nM",higher
same,maturation index (acidophilic cells+reticulocytes)*100 / polychromatophilic cells,[3]; KPT 100 nM and 1000 nM compared to control condition KPT 0,increases
same,mean fluorescence intensity (MFI) of Band 3 protein labelling,"[3]; KPT 100 nM or 1000 nM, at 96 h of treatment (FIG. 6c) and at 72 h of treatment (FIG. 7c), flow cytometry",increases
same,cytotoxicity (cell death of CD36+ cells),[3]; KPT 1000 nM compared to KPT 0 and KPT 100 nM,little cytotoxicity
same,proliferation of CD36+ cells,"[3]; KPT 1000 nM compared to KPT 0 and KPT 100 nM, only in the experiment with high proliferation rate in control condition",decreased proliferation
same,decrease of cell death compared to the absence of KPT treatment,[4]; KPT 100 nM,49%
same,decrease of cell death compared to the absence of KPT treatment,[4]; KPT 333 nM,39%
same,HSP70 cyto/nuclear fraction,"[5]; KPT 100 nM and 1000 nM compared to KPT 0, 24 h of treatment",decrease
same,fraction of cells positive for HSP70 in the nucleus,"[5]; KPT 100 nM and 1000 nM compared to KPT 0, 24 h of treatment, Amnis",increases
same,mean of fluorescence intensity of GATA1 labelling,"[5]; KPT treatment conditions of FIG. 8, 24 h of treatment",increase
same,HSP70 nuclear localization,"[5]; beta-thalassemia CD36+D8 cells, 72 h of treatment at 100 nM, compared to non treated cells",induces HSP70 nuclear localization
CCC(=C/[C@H](C)C/C=C/C(C)=C/[C@@H](C)C(=O)[C@@H](C)[C@H](O)[C@@H](C)C/C(C)=C/C(=O)O)/C=C/[C@@H]1OC(=O)C=C[C@@H]1C [Leptomycin B],HSP70 nuclear retention in erythroid precursor cells,XPO1,induces HSP70 nuclear retention

# From patent US9861615B2, “Methods and pharmaceutical compositions for the treatment of beta-thalassemias” (INSERM (INSTITUT NATIONAL DE LA SANTE ET DE LA RECHERCHE …, priority 2013, dated 2018)
